Results reported in patent publication US11932885B2, “Use of glutamine synthetase for treating hyperammonemia” (Thoeris GmbH, priority 2017, dated 2024).

Key:
[1] = mouse, in vivo, sc, 2.5 mg/kg
Method: The ELISA was conducted according to the protocol outlined by the manufacturer (Abcam PEG ELISA kit, ab133065). […] N=2 animals in each group.

[2] = tested on: BDL rats; experiment: Ammonia blood levels in BDL rats; assay type: in vivo; details: BDL rats on hyperammonemic diet
Method: All experiments were performed in accordance with the Animals (Scientific Procedures) Act of 1986, which was revised according to the European Directive2010/63/EU. All animals received humane care according to the criteria outlined in the Guide for the Care and Use of Laboratory Animals (National Institutes of Health publication 86-23; revised 1985). All the animals used in these experiments were Male Sprague-Dawley rats (body weight, 250 g at the beginning of the experiments) were obtained from Charles River Laboratories (Kent, UK) and divided into 5 groups: bile duct ligated animals+ammonia+saline serum (BDL+HA+SS, n=6), bile duct ligated animals+ammonia+sodium phenylacetate (BDL+HA+SP, n=6), bile duct ligated animals+ammonia+sodium phenylacetate+glutamine synthetase (BDL+HA+SP+GS, n=5), bile duct ligated animals+ammonia+glutamine synthetase (BDL+HA+GS, n=6), sham-operated animals+glutamine synthetase (SHAM+GS, n=5). Treatment comprising SP and GS may be referred to as “COMBO”. […]
Plasma samples were collected from the leg vein at different timepoints in all groups. The timepoints were counted after the treatment with glutamine synthetase as follows: 6 hours, 24 hours, 48 hours and 5 days. […]

[3] = tested on: BDL rats; experiment: Brain oedema in the prefrontal cortex of BDL rats (dry weight technique); assay type: in vivo; details: versus control without treatment
Method: (§1) All experiments were performed in accordance with the Animals (Scientific Procedures) Act of 1986, which was revised according to the European Directive2010/63/EU. All animals received humane care according to the criteria outlined in the Guide for the Care and Use of Laboratory Animals (National Institutes of Health publication 86-23; revised 1985). All the animals used in these experiments were Male Sprague-Dawley rats (body weight, 250 g at the beginning of the experiments) were obtained from Charles River Laboratories (Kent, UK) and divided into 5 groups: bile duct ligated animals+ammonia+saline serum (BDL+HA+SS, n=6), bile duct ligated animals+ammonia+sodium phenylacetate (BDL+HA+SP, n=6), bile duct ligated animals+ammonia+sodium phenylacetate+glutamine synthetase (BDL+HA+SP+GS, n=5), bile duct ligated animals+ammonia+glutamine synthetase (BDL+HA+GS, n=6), sham-operated animals+glutamine synthetase (SHAM+GS, n=5). Treatment comprising SP and GS may be referred to as “COMBO”.
This was measured using the dry weight technique as described previously. […] The dry weight was determined after Eppendorf's loaded with individual brain samples were dried in an oven at 60° C. for 7 days. Tissue water content was then calculated as % H2O=(1-dry wt/wet wt)×100%.

[4] = tested on: BDL rats; experiment: RotaRod-Accelerod test in BDL rats; assay type: in vivo
Method: as §1
This test of motor performance consists of a motor-driven rotating rod that enables us to assess motor coordination and resistance to fatigue (Jones and Roberts 1968). […] Latency to fall off the rod and the actual rotation speed were recorded in the pre- and post-treatment conditions for all groups after 1 hour treatment.

Compound | plasma level (PEG ELISA) [1] | ammonia levels in the blood [2] | brain oedema in the prefrontal cortex [3] | rotarod grip test performance [4]
wt GS: Non-conjugated human glutamine synthetase with N-terminal His-tag and GGGGS linker (SEQ ID NO: 4), expressed in E. coli | very low or undetectable levels |  |  | 
O=C([O-])Cc1ccccc1.[Na+] [SP, sodium phenylacetate] |  | significant reduction of ammonia levels in the blood | did not statistically significantly reduce the swelling | did not lead to stastically significant effects
